From patent US11000033B2, “Ketone or oxime compound, and herbicide” (NISSAN CHEMICAL CORPORATION, priority 2014, dated 2021)

Experiments:
Format in all cases: in vivo
[1] = system: soybean; experiment: Test Example 5: effect on crop by foliage application, plastic box (symbol d); settings: 320 g/ha, 3 weeks after application
Method in brief: (§1)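 In a plastic box 7 cm deep filled with sterilized diluvial soil, seeds of crops and weeds such as Digitaria ciliaris, Avena fatua and Amaranthus retroflexus are sown in spots and covered with about 1.5 cm of soil before greenhouse growth at 25–30° C.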

[2] = system: Echinochloa crus-galli var. crus-galli; experiment: Test Example 5: herbicidal effect by foliage application, plastic box (symbol H); settings: 320 g/ha, 3 weeks after application
Method in brief: (§2)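 After sowing into sterilized diluvial soil and growing two weeks under glass at 25° C. to 30° C., seedlings receive a uniform foliar spray of diluted emulsion. Damage is judged visually three weeks on.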

[3] = system: Monochoria vaginalis; experiment: Test Example 2: herbicidal activity, application during weed generation in submerged conditions (symbol C); settings: Table 23; application herbicide amount 320 g/ha; grade 0-5 by criteria of Test Example 1
Method in brief: (§3)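 Submerged alluvial soil (4 cm) sown with mixed seed; greenhouse 25–30° C. 1–2 leaf: diluted emulsion onto water surface, preset dose. Visual score, 3 wk.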

[4] = system: corn; experiment: Test Example 5: effect on crop by foliage application, plastic box (symbol c); settings: 320 g/ha, 3 weeks after application
Method in brief: as §1

[5] = system: Amaranthus retroflexus; experiment: Test Example 5: herbicidal effect by foliage application, plastic box (symbol N); settings: 320 g/ha, 3 weeks after application
Method in brief: as §2

[6] = system: wheat; experiment: Test Example 4: effect on crop by soil treatment (symbol e); settings: application herbicide amount 320 g/ha
Method in brief: (§4)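 Seeds were sown in spots on sterilized diluvial soil in a plastic box and covered with about 1.5 cm of soil. Plants were then grown in a greenhouse at 25° C. to 30° C.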

[7] = system: Lolium multiflorum Lam.; experiment: Test Example 4: herbicidal effect by soil treatment (symbol K); settings: application herbicide amount 320 g/ha
Method in brief: (§5)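 Seeds were sown in sterilized diluvial soil, covered with about 1.5 cm of soil, and the soil surface was sprayed with a water-diluted emulsion of the compound at a predetermined rate. Plants grew in a greenhouse at 25° C. to 30° C.; effects were scored visually 3 weeks after application.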

[8] = system: beet; experiment: Test Example 4: effect on crop by soil treatment (symbol f); settings: application herbicide amount 320 g/ha
Method in brief: as §4

[9] = system: Abutilon theophrasti; experiment: Test Example 4: herbicidal effect by soil treatment (symbol M); settings: application herbicide amount 320 g/ha
Method in brief: as §5

[10] = system: Scirpus juncoides; experiment: Test Example 2: herbicidal activity, application during weed generation in submerged conditions (symbol B); settings: Table 23; application herbicide amount 320 g/ha; grade 0-5 by criteria of Test Example 1
Method in brief: as §3

[11] = system: Avena fatua; experiment: Test Example 4: herbicidal effect by soil treatment (symbol I); settings: application herbicide amount 320 g/ha
Method in brief: as §5

[12] = system: rapeseed; experiment: Test Example 5: effect on crop by foliage application, plastic box (symbol g); settings: 320 g/ha, 3 weeks after application
Method in brief: as §1

[13] = system: Echinochloa crus-galli var. crus-galli; experiment: Test Example 4: herbicidal effect by soil treatment (symbol H); settings: application herbicide amount 320 g/ha
Method in brief: as §5

[14] = system: soybean; experiment: Test Example 4: effect on crop by soil treatment (symbol d); settings: application herbicide amount 320 g/ha
Method in brief: as §4

[15] = system: Lolium multiflorum Lam.; experiment: Test Example 5: herbicidal effect by foliage application, plastic box (symbol K); settings: 320 g/ha, 3 weeks after application
Method in brief: as §2

[16] = system: Digitaria ciliaris; experiment: Test Example 5: herbicidal effect by foliage application, plastic box (symbol F); settings: 320 g/ha, 3 weeks after application
Method in brief: as §2

[17] = system: Veronica persica; experiment: Test Example 5: herbicidal effect by foliage application, plastic box (symbol R); settings: 320 g/ha, 3 weeks after application
Method in brief: as §2

[18] = system: transplanted rice plant; experiment: Test Example 1: effect on crop, application before weed generation in submerged conditions (symbol a); settings: application herbicide amount 320 g/ha
Method in brief: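 Alluvial soil pots flooded to 4 cm water, sown with Echinochloa oryzacola, Scirpus juncoides and Monochoria vaginalis, then transplanted with 2.5 leaf stage rice seedlings; pre-emergence application. Greenhouse 25° C. to 30° C.; scored 0–5 by herbicidal ratio 3 weeks after application.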

[19] = system: rice; experiment: Test Example 4: effect on crop by soil treatment (symbol b); settings: application herbicide amount 320 g/ha
Method in brief: as §4

CON=C(CC1CC(O)=C(c2c(C)cc(C#C[Si](C)(C)C)cc2C)C1=O)C(C)C (stereo not shown) [9-005]
d: soybean, effect on crop grade [1]: 0 (Herbicidal ratio of 5% or lower (almost no effect)) | H: Echinochloa crus-galli var. crus-galli, herbicidal effect grade [2]: 5 (Herbicidal ratio of 90% or more (almost completely withered)) | Herbicidal effect grade, C: Monochoria vaginalis [3]: 0 (Herbicidal ratio of 5% or lower (almost no effect)) | c: corn, effect on crop grade [4]: 3 (Herbicidal ratio of 40% or higher and lower than 70%) | N: Amaranthus retroflexus, herbicidal effect grade [5]: 0 (Herbicidal ratio of 5% or lower (almost no effect)) | Effect on crop grade, e: wheat [6]: 0 (Herbicidal ratio of 5% or lower (almost no effect)) | Herbicidal effect grade, K: Lolium multiflorum Lam. [7]: 4 (Herbicidal ratio of 70% or higher and lower than 90%) | Effect on crop grade, f: beet [8]: 0 (Herbicidal ratio of 5% or lower (almost no effect)) | Herbicidal effect grade, M: Abutilon theophrasti [9]: 0 (Herbicidal ratio of 5% or lower (almost no effect)) | Herbicidal effect grade, B: Scirpus juncoides [10]: 0 (Herbicidal ratio of 5% or lower (almost no effect)) | Herbicidal effect grade, I: Avena fatua [11]: 0 (Herbicidal ratio of 5% or lower (almost no effect)) | g: rapeseed, effect on crop grade [12]: 3 (Herbicidal ratio of 40% or higher and lower than 70%) | Herbicidal effect grade, H: Echinochloa crus-galli var. crus-galli [13]: 0 (Herbicidal ratio of 5% or lower (almost no effect)) | Effect on crop grade, d: soybean [14]: 0 (Herbicidal ratio of 5% or lower (almost no effect)) | K: Lolium multiflorum Lam., herbicidal effect grade [15]: 5 (Herbicidal ratio of 90% or more (almost completely withered)) | F: Digitaria ciliaris, herbicidal effect grade [16]: 4 (Herbicidal ratio of 70% or higher and lower than 90%) | R: Veronica persica, herbicidal effect grade [17]: 0 (Herbicidal ratio of 5% or lower (almost no effect)) | Effect grade on crop, a: transplanted rice plant [18]: 4 (Herbicidal ratio of 70% or higher and lower than 90%) | Effect on crop grade, b: directly sowed rice plant [19]: 1 (Herbicidal ratio of 5% or higher and lower than 20%)
